Measurements as given in patent publication US20110190313A1, “Treatment of Pulmonary Arterial Hypertension” (priority 2008, published 2011).
Read-outs that look alike come from different tables or passages of the source.

Key:
[1] = tested on: patients with severe pulmonary arterial hypertension; test: Example 2 trial: blood gases (oxygen saturation); format: in vivo, human
Description: (§1) Analyses were conducted within the intention-to-treat (ITT) population, which consisted of all patients who received at least one dose of study medication. Dropouts were excluded from the analysis The primary efficacy analysis (6MWD) was performed using analysis of covariance (ANCOVA) with baseline value as a covariate. ANCOVAs were also used to assess between-group differences in pulmonary hemodynamics and blood gases. Missing data were not imputed so only subjects with assessment both at baseline and post-treatment were included in the ANCOVA analysis. FC was compared using Fisher's test.

[2] = tested on: patients with severe pulmonary arterial hypertension; test: Example 2 trial: 6-minute walk test (6MWD); format: in vivo, human; settings: for 6MWD change vs. baseline, mean (SD): study end, patients with both baseline and end of study assessment
Excerpt: Secondary objectives included changes in hemodynamic variables, and in FC.
(§2) Patients (≧18 years) in FC II-IV with idiopathic or familial PAH, or PAH associated with systemic sclerosis or congenital heart disease (WHO group I) and PVR>300 dynes·sec·cm^−5 were eligible. Patients were on stable PAH medication(s) for >3 months before enrolment. Females of child-bearing potential used double-barrier contraception.
(§3) The primary efficacy outcome was the between-group difference in the 6MW distance (6MWD) at baseline and at 6 months. Complete hemodynamic parameters were assessed with standard techniques. FC was classified according to the WHO modification of the NYHA criteria for pulmonary hypertension.
as §1

[3] = tested on: patients with severe pulmonary arterial hypertension
[4] = tested on: patients with severe pulmonary arterial hypertension; test: Example 2 trial: pulmonary hemodynamics; format: in vivo, human
Description: as §2, §3, §1

[5] = end of study, with imatinib treatment

Cc1ccc(NC(=O)c2ccc(CN3CCN(C)CC3)cc2)cc1Nc1nccc(-c2cccnc2)n1 [imatinib]
Systemic arterial oxygen saturation, mean treatment difference vs. placebo ([1]; 95% CI 0.5, 4.3): 2.4%
Mixed venous oxygen saturation, mean treatment difference vs. placebo ([1]; 95% CI 2.1, 11.9): 7.0%
Mixed venous oxygen saturation ([1]; baseline): 58±10%
Systemic arterial oxygen saturation ([1]; baseline): 88±9%
Mixed venous oxygen saturation [1, 5]: 65±7%
Systemic arterial oxygen saturation [1, 5]: 93±5%
6MWD treatment difference imatinib vs. placebo ([2]; ANCOVA of ITT population, p=0.21): 21.7 m
6MWD change vs. baseline, mean (SD) [2]: +22±63 m
6MWD change vs. baseline, mean (SD) ([2]; listed as Imatinib): 22 (63) m
Haemoglobin level (±SD) ([3]; after the fall with imatinib): 128 ± 16 g/L
Haemoglobin level (±SD) ([3]; before the fall (start value)): 151 ± 14 g/L
Deaths in group ([3]; during 6 month study): three
AE headache, number of patients ([3]; imatinib group): 10
AE headache, percent of patients ([3]; imatinib group): 35.7%
AE nausea, percent of patients ([3]; imatinib group): 50%
AE peripheral edema, number of patients ([3]; imatinib group): 7
AE peripheral edema, percent of patients ([3]; imatinib group): 25.0%
Patients reporting AEs of mild intensity, number ([3]; imatinib group): 21
Patients reporting AEs of mild intensity, percent ([3]; imatinib group): 75%
Patients reporting AEs of moderate intensity, number ([3]; imatinib group): 20
Patients reporting AEs of moderate intensity, percent ([3]; imatinib group): 71%
Patients reporting AEs of severe intensity, number ([3]; imatinib group): 9
Patients reporting AEs of severe intensity, percent ([3]; imatinib group): 32%
Patients with rupture of the pulmonary artery (fatal) ([3]; imatinib group): One
Serious AEs (SAEs), number of recipients ([3]; imatinib group): 11
Serious AEs (SAEs), percent of recipients ([3]; imatinib group): 39%
AE nausea, number of patients ([3]; imatinib group N = 28): 14
Safety and tolerability in patients with PAH ([3]; over 6 months, result in words): safe and well tolerated
Changes over time in other laboratory variables (white blood cell count, platelet count, albumin, liver enzymes, creatinine, electrolytes etc.) ([3]; result in words): no relevant changes
PAPm, imatinib vs. placebo ([4]; 6 months, result in words): no significant difference
Cardiac output (CO) mean treatment difference vs. placebo ([4]; 6 months, 95% CI 0.10, 1.26, p=0.02): 0.68 L/min
PVR mean treatment difference vs. placebo ([4]; 6 months, 95% CI −383.7, −77.8, p=0.004): −230.7 dynes
Change between baseline and study end for PAPm, CO, PVR or 6MWD ([4]; post-hoc subgroup, baseline PVR<1,000 dynes·sec·cm^−5): no major differences
Change between baseline and study end for PAPm, CO, PVR and 6MWD compared with placebo ([4]; post-hoc subgroup, baseline PVR≧1,000 dynes·sec·cm^−5): substantial improvement
